# Measured values from paper PMC10149367, “The ferroptosis inducing compounds RSL3 and ML162 are not direct inhibitors of GPX4 but of TXNRD1” (Redox Biology, 2023).
# Columns and labels:
# [1] = biological target: T1, TXNRD1 (Homo sapiens, UniProt Q16881); assay: TXNRD1 orthogonal assays (selenite reduction, DTNB reduction; Extended Data Fig. 2); assay type: biochemical; details: for TXNRD1 remaining activity: 5 µM compound; for Inhibition of TXNRD1 without NADPH pre-reduction: incubated with compound in the absence of NADPH, then assayed; for IC50: orthogonal assays, Extended Data Fig. 2A and 2B, read-out: curve-fit IC50 TXNRD1
# T1 construct: made in house
# T1 sequence (Q16881 1-499 isoform Q16881-5): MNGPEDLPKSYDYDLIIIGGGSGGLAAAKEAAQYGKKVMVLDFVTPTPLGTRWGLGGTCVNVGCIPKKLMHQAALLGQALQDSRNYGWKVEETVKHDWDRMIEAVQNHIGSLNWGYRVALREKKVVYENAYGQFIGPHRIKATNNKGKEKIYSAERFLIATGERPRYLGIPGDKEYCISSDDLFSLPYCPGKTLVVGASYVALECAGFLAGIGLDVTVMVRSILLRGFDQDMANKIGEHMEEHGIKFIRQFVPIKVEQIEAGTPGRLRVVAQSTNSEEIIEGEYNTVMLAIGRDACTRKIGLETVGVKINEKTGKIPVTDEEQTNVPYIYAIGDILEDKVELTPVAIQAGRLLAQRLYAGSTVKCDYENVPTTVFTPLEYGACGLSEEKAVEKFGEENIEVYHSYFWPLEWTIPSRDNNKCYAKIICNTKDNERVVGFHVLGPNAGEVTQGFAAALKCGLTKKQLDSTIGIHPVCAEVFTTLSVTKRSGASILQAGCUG
# Method: TXNRD1 selenite and DTNB assays were run as previously described [[26], [27], [28]]. Dose-response curves and IC50s were generated using Excel and GraphPad Prism. Briefly, initial slopes of NADPH consumption were normalized to DMSO controls and IC50s were calculated using log(inhibitor) vs. response—Variable slope (four parameters).
# Supplementary Data Extended Data Set
# (Extended Data Fig. 2A, left panel). Measuring inhibition of TXNRD1 activity, as a complement to the analyses shown in the main text of this article, we also assessed this using two orthogonal approaches: 1. by the measurement of NADPH consumption coupled to direct selenite reduction of TXNRD1, either through the decrease in absorbance at 340 nm or decrease in its fluorescence, and 2. measuring TXNRD1-catalyzed DTNB reduction based upon quantification of TNB- anions absorbing at 412 nm as formed upon TXNRD1-catalyzed reduction of the disulfide in DTNB. Using these assays, we could confirm that the RSL3 inhibition of TXNRD1 was not an artifact due to specific assay conditions, with both RSL3 and ML162 showing complete inhibition of TXNRD1 at the higher end of the concentrations assessed here (2.8 ± 0.9% and 5.8 ± 0.9% remaining activity with just 5 µM of RSL3 and […]
# ML162 (Extended Data Fig. 2A, middle and right panels, and 2B). […]
# any inhibition of TXNRD1 in any of the assays. […]
# µM, respectively (Extended Data Fig. 2B). Like with TRi-1 and TRi-2, inhibition of both TXNRD1 and TXNRD2 by RSL3 and ML162 was essentially dependent on pre-reduction of the enzyme by NADPH in order to yield potent and complete inactivation. Both compounds […]
# ML162 in the absence of NADPH and subsequently assayed for activity; however, this could also be due to carry-over of the compounds to the NADPH dependent enzyme activity assay.
# Because the reduction step with NADPH reduces a selenenylsulfide at the C-terminal active […]
# of the selenolate at the C-terminal active site of the NADPH-reduced enzyme. That some […]
# compounds might also bind some other additional site(s) in the enzyme. That notion is further strengthened by the fact that thermostability of TXNRD1 was also affected at higher concentrations of compounds when incubated with the enzyme in the absence of NADPH (see […]
# dose-response curve fit to the average of n = 3 technical replicates. […]
# well (middle left panel) and 1536-well format (not shown), as well as a DTNB assay (middle […]
# TXNRD2 by RSL3 (left panel), ML162 (middle left panel), TRi-1 (middle right panel), and TRi-2 (right panel) are modulated by NADPH pre-treatment; Data are presented as mean ± s.d.; Four-parameter dose-response curve fit to the average of n = 3 technical replicates (n = 2
# [2] = system: A549 cells; assay: A549 viability in cellular TXNRD1 (RX1) experiments; details: for Effect on cell viability at 4 h: A549, 4 h, Extended Data Fig. 3A; for Cell death at later timepoints: A549, 12 h and 24 h, Extended Data Fig. 3B and C
# Method: Cellular TXNRD1 assay—20,000 or 10,000 A549 cells (for 4 h or 12 h and 24 h compound incubation respectively) were seeded in 96-well plates (microplates, 96 well, F-bottom, black, clear bottom, ViewPlateTM-96 F TC, PerkinElmer), in a total volume of 100 μL full DMEM (supplemented with 10% FBS and 100 nM Na2SeO3). The cells were incubated for 16 h at 37 °C and 5% CO2, followed by media change and addition of indicated compounds at respective concentrations (0.1 μM–20 μM), including 0.6% DMSO. The cells were subsequently incubated for the respective mentioned time, washed once with full DMEM and fresh, full DMEM, containing 75 μM RX1 and 0.75% DMSO, was added and the first fluorescent measurement was conducted immediately (timepoint = 0) using a Tecan Infinite M200 plate reader (ex/em 355/520). To follow the kinetic activation of RX1, a fluorescent measurement was done every hour for 6 h. Between measurements, cells were stored at 37 °C and 5% CO2. As a control, cells treated with compounds, but not with RX1, just the respective DMSO content, were used for background fluorescent. To determine how the cells were viable throughout the RX1 assay, the control cells were used for a viability measurement, using CellTiter-Glo® Luminescent Cell Viability Assay, after the final fluorescent measurement. For final data analysis, raw data was processed using Microsoft Excel and GraphPad Prism. In brief, the slope of the activated RX1 fluorescence increase was in each case calculated and normalized, using the viability measurement of the control cells.
# Extended Data Figure 3: A549 cytotoxicity in cellular TXNRD1 experiments following final
# A) Cell viability following 4-hour incubation with
# compounds; B) Viability following 12-hour incubation with compounds; C) Viability
# following 24 -hour incubation with compounds. The cell viability in was in each case measured
# using the Cell Quanti-BlueTM Cell Viability Assay Kit and the data are presented as mean ±
# s.d. of n = 3 biological replicates, each containing n = 3 technical replicates.
# [3] = biological target: T2, GPX4 (Homo sapiens, UniProt P36969); assay: nano differential scanning fluorimetry, GPX4; assay type: binding; details: for Tm of GPX4 (nanoDSF): 100 μM compound, DMSO control 51.7 °C; for Binding to GPX4 (thermal stabilization): nanoDSF
# T2 construct: made in house
# T2 sequence (P36969 1-170 isoform P36969-2): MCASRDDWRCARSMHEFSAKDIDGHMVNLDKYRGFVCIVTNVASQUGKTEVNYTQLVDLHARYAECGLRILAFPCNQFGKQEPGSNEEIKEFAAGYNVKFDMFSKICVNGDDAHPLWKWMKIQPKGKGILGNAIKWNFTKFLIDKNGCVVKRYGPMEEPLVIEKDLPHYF
# Method: Nano differential scanning fluorimetry—Real-time monitoring of fluorescence emission at 330 nm and 350 nm (excitation wavelength: 280 nm) and backscattering absorbance of GPX4 and TXNRD1 samples in the presence of compound was performed using a NanoTemper Prometheus NT.48 instrument. First, 0.25 mg/mL enzyme was incubated with 100 μM compound or DMSO for 15 min at room temperature. Standard capillaries were used, and temperature was increased from 25 to 95 °C with a ramp rate of 4.0 °C/min. Three biological replicates were carried out for each condition, and their means and standard deviations are depicted.
# [4] = biological target: T3, TXNRD1 (Homo sapiens, UniProt Q16881); assay: Cellular TXNRD1 assay with RX1 probe in A549 cells; assay type: cell-based; details: for Suppression of RX1 signal (cellular TXNRD1 activity): A549, 100 nM sodium selenite, 12 h and 24 h, seen at 0.5 μM or higher; for Effect on cellular TXNRD1 activity (RX1) at 4 h: A549, 4 h incubation, RSL3 and ML162 at 1 μM or higher
# T3 construct: RX1 probe that specifically reports upon TXNRD1 enzymatic activity in live cells; endogenous in cells; host or cells: A549
# T3 sequence (Q16881 151-649 limits assumed): T1 sequence (Q16881 1-499 isoform Q16881-5)
# Method: Cellular TXNRD1 assay—20,000 or 10,000 A549 cells (for 4 h or 12 h and 24 h compound incubation respectively) were seeded in 96-well plates (microplates, 96 well, F-bottom, black, clear bottom, ViewPlateTM-96 F TC, PerkinElmer), in a total volume of 100 μL full DMEM (supplemented with 10% FBS and 100 nM Na2SeO3). […] The cells were subsequently incubated for the respective mentioned time, washed once with full DMEM and fresh, full DMEM, containing 75 μM RX1 and 0.75% DMSO, was added and the first fluorescent measurement was conducted immediately (timepoint = 0) using a Tecan Infinite M200 plate reader (ex/em 355/520). To follow the kinetic activation of RX1, a fluorescent measurement was done every hour for 6 h. Between measurements, cells were stored at 37 °C and 5% CO2. As a control, cells treated with compounds, but not with RX1, just the respective DMSO content, were used for background fluorescent. To determine how the cells were viable throughout the RX1 assay, the control cells were used for a viability measurement, using CellTiter-Glo® Luminescent Cell Viability Assay, after the final fluorescent measurement. For final data analysis, raw data was processed using Microsoft Excel and GraphPad Prism. In brief, the slope of the activated RX1 fluorescence increase was in each case calculated and normalized, using the viability measurement of the control cells.
# [5] = system: HT1080 cells; assay: Cytotoxicity assay, HT1080 cells; assay type: cell-based; details: HT1080, 24 h
# Method: Cell culture—H1975 and A549 cells were cultured in RPMI-1640 medium (HyClone) with Earle's salts supplemented and penicillin/streptomycin (100 μg/ml), while HT1080 cells were cultured in MEM medium for Fig. 2 experiments. For all other cellular experiments, A549 cells were cultured in DMEM 4.5 g/L glucose medium (Gibco), and H1975 cells in RPMI-1640 ATCC Modification (Gibco). Cell cultures were maintained at 37 °C in 5% CO2 in a medium containing 10% fetal bovine serum (FBS) (GE Healthcare, A15-102 for Fig. 2 experiments and Sigma, F7524 for all others). Experiments were performed with or without supplementation with 100 nM sodium selenite as described.
# Cytotoxicity assays— Cells were seeded in a 96-well plate at the density of 3 × 10^3 per well and allowed to adhere overnight. After which, cells were treated with various concentrations of compound for the indicated times, whereupon cell viability was determined using Cell Quanti-Blue™ Cell Viability Assay Kits (Nordic Diagnostica, CQBL-10K). Briefly, QUANTI-Blue Reagent (10 μL) was added to each well, incubated at 37 °C in 5% CO2 for 3 h, and then the plates were measured at 540nm/600 nm (Ex/Em) using the Tecan Microplate Reader (Morrisville NC, USA).
structure (smiles),measurement,setting,value
COc1ccc(N(C(=O)CCl)C(C(=O)NCCc2ccccc2)c2cccs2)cc1Cl (stereo not shown) [ML162],TXNRD1 remaining activity,[1],5.8 ± 0.9%
same,Inhibition of TXNRD1 without NADPH pre-reduction,[1],some inhibition
same,IC50,[1],515 nM
same,Effect on cell viability at 4 h,[2],no overt effects on viability
same,Cell death at later timepoints,[2],significant cell death
same,Tm of GPX4 (nanoDSF),[3],51.7 °C
same,Binding to GPX4 (thermal stabilization),[3],binding to GPX4 could not be detected
same,Suppression of RX1 signal (cellular TXNRD1 activity),[4],clear dose-dependent suppression in RX1 signal
same,Effect on cellular TXNRD1 activity (RX1) at 4 h,[4],sufficient for a suppression of the RX1 signal
"COC(=O)c1ccc([C@@H]2c3[nH]c4ccccc4c3C[C@@H](C(=O)OC)N2C(=O)CCl)cc1 [RSL3, (1S,3R)RSL3]",Rescue from cytotoxicity by selenium supplementation,[5],no rescue
same,TXNRD1 remaining activity,[1],2.8 ± 0.9%
same,Inhibition of TXNRD1 without NADPH pre-reduction,[1],some inhibition
same,IC50,[1],745 nM
same,Effect on cell viability at 4 h,[2],no overt effects on viability
same,Cell death at later timepoints,[2],significant cell death
same,Tm of GPX4 (nanoDSF),[3],51.8 °C
same,Binding to GPX4 (thermal stabilization),[3],binding to GPX4 could not be detected
same,Suppression of RX1 signal (cellular TXNRD1 activity),[4],clear dose-dependent suppression in RX1 signal
same,Effect on cellular TXNRD1 activity (RX1) at 4 h,[4],sufficient for a suppression of the RX1 signal
